Where a name gives a salt, the structure may show the parent alone.
Legend:
[1] = biological target: T1, human neutrophil elastase (Homo sapiens, UniProt P08246); experiment: In vitro assay of human neutrophil elastase (HNE); assay type: biochemical; settings: 118 nM purified human neutrophil elastase, pH 8.6, 15 min incubation at 30° C., MeO-succinyl-alanyl-alanyl-prolyl-valyl-p-nitroanilide substrate; read-out: HNE IC50
T1 sequence (P08246 30-267): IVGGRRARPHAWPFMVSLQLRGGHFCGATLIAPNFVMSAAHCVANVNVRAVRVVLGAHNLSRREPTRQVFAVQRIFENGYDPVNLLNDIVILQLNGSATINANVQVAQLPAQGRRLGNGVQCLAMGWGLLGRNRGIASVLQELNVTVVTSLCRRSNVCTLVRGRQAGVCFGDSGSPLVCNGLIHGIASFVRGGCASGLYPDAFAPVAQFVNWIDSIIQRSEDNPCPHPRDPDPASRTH
In short: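 Residual activity was taken as the 10 min rate of absorbance rise at 405 nm after adding 0.6 mM MeO-succinyl-AAPV-p-nitroanilide. Curve fitting of activity against concentration gave IC50.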

[2] = test system: Intracellular elastase; experiment: Oral in vivo model using IL-8 induced lung infiltrates for the assessment of intracellular elastase inhibition (hamster test); settings: effective dose of less than 40 mg/kg, IL-8 intratracheal
Method: An Oral in vivo Model Using IL-8 Induced Lung Infiltrates For the Assessment of Intracellular Elastase Inhibition
Adult hamsters (100-150 g) are randomised into groups (n=4) and fasted overnight. Under gaseous anaesthetic (3% isofluorane) animals are dosed orally with 1 mL/100 g water as vehicle or containing predissolved compounds. Either at the same time, or subsequently under anaesthetic, animals are dosed intratracheally with 1 ug recombinant human IL-8 in 100 uL sterile saline. Six hours after IL-8 dosing animals are sacrificed using intrapertoneal pentobarbitone. The lungs are ravaged with 2×2.5 mL sterile saline and femurs are removed by dissection.
Intracellular elastase is prepared from neutrophils collected by lavage and from femoral bone marrow. This is achieved by sonication of the neutrophils and centrifugation to yield intracellular granules. These are disrupted by freeze/thawing and sonication. Elastase and myeloperoxidase assays are then performed on these samples to assess the efficacy of the compounds and to normalise for neutrophil recovery.

Structure (SMILES): CCC[C@H]1C(=O)N(S(C)(=O)=O)[C@H]2CCN(S(=O)(=O)c3ccc(NC(C)=O)cc3)[C@H]12 (relative stereo) [Example 63, rel-N-[4-(4-Methanesulfonyl-5-oxo-6R-propyl-hexahydro-(3aS,6aR)-pyrrolo[3,2-b]pyrrole-1-sulfonyl)phenyl]-acetamide]
- IC50 [1]: 0.006 µM
- duration of effect [2]: at least 6 hours

Structure (SMILES): CC(C)[C@H]1C(=O)N(S(C)(=O)=O)[C@H]2CCN(C(=O)c3ccc(CN(C(C)C)C(C)C)cc3)[C@H]12 (relative stereo) [Example 201, rel-(3R,3aR,6aS)-4-{4-(Diisopropylamino)-methy]benzoyl}3-isopropyl-1-methanesulfonyl-hexahydro-pyrrolo[3,2-b]pyrrol-2-one hydrochloride]
- IC50 [1]: 0.046 µM
- duration of effect [2]: at least 6 hours

Structure (SMILES): CC(C)[C@H]1C(=O)N(S(C)(=O)=O)[C@H]2CCN(C(=O)c3ccc(CN4CCC5CCCCC5C4)cc3)[C@H]12.Cl (relative stereo) [Example 184, rel-(3R,3aR,6aS)-3-Isopropyl-1-methanesulfonyl-4-[4-(octahydro-isoquinolin-2-ylmethyl)-benzoyl]-hexahydro-pyrrolo[3,2-b]pyrrol-2-one hydrochloride]
- IC50 [1]: 0.012 µM
- duration of effect [2]: at least 6 hours

Structure (SMILES): CC(C)[C@H]1C(=O)N(S(C)(=O)=O)[C@H]2CCN(C(=O)c3ccc(CN4CCCCC4)cc3)[C@H]12.Cl (relative stereo) [Example 174, rel-(3R,3aR,6aS)-3-Isopropyl-1-methanesulfonyl-4-(4-piperidin-1-ylmethyl-benzoyl)-hexahydro-pyrrolo[3,2-b]pyrrol-2-one hydrochloride]
- IC50 [1]: 0.013 µM
- duration of effect [2]: at least 6 hours

Structure (SMILES): CC(C)[C@H]1C(=O)N(S(C)(=O)=O)[C@H]2CCN(C(=O)c3ccc(CN4C(C)CCC4C)cc3)[C@H]12.Cl (relative stereo) [Example 186, rel-(3R,3aR,6aS)-4-[4-(2,5-Dimethyl-pyrrolidin-1-ylmethyl)-benzoyl]-3-isopropyl-1-methanesulfonyl-hexahydro-pyrrolo[3,2-b]pyrrol-2-one hydrochloride]
- IC50 [1]: 0.053 µM
- duration of effect [2]: at least 6 hours

Structure (SMILES): CC(C)[C@H]1C(=O)N(S(C)(=O)=O)[C@H]2CCN(C(=O)c3ccc(CN4CCNCC4)cc3)[C@H]12.Cl.Cl (relative stereo) [Example 188, rel-(3R,3aR,6aS)-3-Isopropyl-1-methanesulfonyl-4-(4-piperazin-1-ylmethyl-benzoyl)-hexahydro-pyrrolo[3,2-b]pyrrol-2-one dihydrochloride]
- IC50 [1]: 0.067 µM
- duration of effect [2]: at least 6 hours

Structure (SMILES): CC(C)[C@H]1C(=O)N(S(C)(=O)=O)[C@H]2CCN(C(=O)c3cccc(CN4CCCC4)c3)[C@H]12 (relative stereo) [Example 193, rel-(3R,3aR,6aS)-3-Isopropyl-1-methanesulfonyl-4-(3-pyrroidin-1-ylmethyl-benzoyl)-hexahydro-pyrrolo[3,2-b]pyrrol-2-one hydrochloride]
- IC50 [1]: 0.05 µM
- duration of effect [2]: at least 6 hours

Structure (SMILES): CC(C)[C@H]1C(=O)N(S(C)(=O)=O)[C@H]2CCN(C(=O)c3ccc(CN4CCN(C)CC4)cc3)[C@H]12.Cl.Cl (relative stereo) [Example 176, rel-(3R,3aR,6aS)-3-Isopropyl-1-methanesulfonyl-4-[4-(4-methyl-piperazin-1-ylmethyl)-benzoyl]-hexahydro-pyrrolo[3,2-b]pyrrol-2-one dihydrochloride]
- IC50 [1]: 0.09 µM
- duration of effect [2]: at least 6 hours

Structure (SMILES): CC(C)[C@H]1C(=O)N(S(C)(=O)=O)[C@H]2CCN(C(=O)c3cccc(CN4CCCCC4)c3)[C@H]12 (relative stereo) [Example 192, rel-(3R,3aR,6aS)-3-Isopropyl-1-methanesulfonyl-4-(3-piperidin-1-ylmethyl-benzoyl)-hexahydro-pyrrolo]3,2-b]pyrrol-2-one hydrochloride]
- IC50 [1]: 0.061 µM
- duration of effect [2]: at least 6 hours

Structure (SMILES): CC(C)[C@H]1C(=O)N(S(C)(=O)=O)[C@H]2CCN(C(=O)/C=C/CN(C)C)[C@H]12.Cl (relative stereo) [Example 148, rel-(3R,3aR,6aS)-4-(4-Dimethylamino-but-2E-enoyl)-3-isopropyl-1-methanesulfonyl-hexahydro-pyrrolo[3,2-b]pyrrol-2-one hydrochloride]
- IC50 [1]: 0.035 µM
- duration of effect [2]: at least 6 hours

Structure (SMILES): CC(C)[C@H]1C(=O)N(S(C)(=O)=O)[C@H]2CCN(C(=O)c3ccco3)[C@H]12 (relative stereo) [Example 248, rel-(3R,3aR,6aS)-4-(Furan-2-carbonyl)-3-isopropyl-1-methanesulfonyl-hexahydro-pyrrolo[3,2-b]pyrrol-2-one]
- IC50 [1]: 0.06 µM
- duration of effect [2]: at least 6 hours

Structure (SMILES): CC(C)NC/C=C/C(=O)N1CC[C@H]2[C@H]1[C@@H](C(C)C)C(=O)N2S(C)(=O)=O.Cl (relative stereo) [Example 151, rel-(3R,3aR,6aS)-3-Isopropyl-4-(4-isopropylamino-but-2E-enoyl)-1-methanesulfonyl-hexahydro-pyrrolo[3,2-b]pyrrol-2-one hydrochloride]
- IC50 [1]: 0.085 µM
- duration of effect [2]: at least 6 hours

Structure (SMILES): CC(C)[C@H]1C(=O)N(S(C)(=O)=O)[C@H]2CCN(C(=O)/C=C/c3ccc(CN(C)C)cc3)[C@H]12 (relative stereo) [Example 159, hydrochloride]
- IC50 [1]: 0.017 µM
- duration of effect [2]: at least 6 hours

Structure (SMILES): CC(C)[C@H]1C(=O)N(S(C)(=O)=O)[C@H]2CCN(C(=O)/C=C/CN3CCCCC3)[C@H]12.Cl (relative stereo) [Example 135, rel-(3R,3aR,6aS)-3-Isopropyl-1-methanesulfonyl-4-(4-piperidin-1-yl-but-2E-enoyl)-hexahydro-pyrrolo[3,2-b]pyrrol-2-one hydrochloride]
- duration of effect [2]: at least 6 hours

Structure (SMILES): CC(C)[C@@H]1C(=O)N(S(C)(=O)=O)[C@@H]2CCN(C(=O)/C=C/CN3CCCCC3)[C@H]21.Cl [Example 154, (3S,3aS,6aR)-3-Isopropyl-1-methanesulfonyl-4-(4-piperidin-1-yl-but-2E-enoyl)-hexahydro-pyrrolo[3,2-b]pyrrol-2-one hydrochloride]
- duration of effect [2]: at least 6 hours

Structure (SMILES): CC(C)[C@H]1C(=O)N(S(C)(=O)=O)[C@H]2CCN(C(=O)/C=C/CN3CCCCC3)[C@H]12.Cl [Example 155, (3R,3aR,6aS)-3-Isopropyl-1-methanesulfonyl-4-(4-piperidin-1-yl-but-2E-enoyl)-hexahydro-pyrrolo[3,2-b]pyrrol-2-one hydrochloride]
- duration of effect [2]: at least 6 hours

Structure (SMILES): CCC[C@H]1C(=O)N(S(=O)(=O)c2ccc3ccccc3c2)[C@H]2CCN(S(C)(=O)=O)[C@H]12 (relative stereo) [Example 22, rel-(3R,3aR,6aS)-4-Methanesulfonyl-1-(naphthalene-2-sulfonyl)-3-propyl-hexahydro-pyrrolo[3,2-b]pyrrol-2-one]
- IC50 [1]: 0.06 µM

Structure (SMILES): CCC[C@H]1C(=O)N(S(=O)(=O)c2ccc3ccccc3c2)[C@H]2CCN(S(=O)(=O)Cc3ccccc3)[C@H]12 (relative stereo) [Example 34, rel-(3aR,6R,6aS)-1-(Naphthalene-2-sulfonyl)-4-phenylmethanesulfonyl-3-propyl-hexahydro-pyrrolo[3,2-b]pyrrol-2-one]
- IC50 [1]: 0.052 µM

Structure (SMILES): CCC[C@H]1C(=O)N(S(=O)(=O)C(C)C)[C@H]2CCN(C(=O)CCN3CCCCC3)[C@H]12 (relative stereo) [Example 161, rel-(3R,3aR,6aS)-4-(3Piperidin-1-yl-propionyl)-1-(propane-2-sulfonyl)-3-propyl-hexahydro-pyrrol[3,2-b]pyrrol-2-one DL-tartrate]
- IC50 [1]: 1.03 µM

Structure (SMILES): CCC[C@H]1C(=O)N(S(=O)(=O)CC(F)(F)F)[C@H]2CCN(C(=O)CCN3CCCCC3)[C@H]12 (relative stereo) [Example 164, rel-(3R,3aR,6aS)-4-(3-Piperidin-1-yl-propionyl)-3-propyl-1-(2,2,2-trifluoro-ethanesulfonyl)-hexahydro-pyrrolo[3,2-b]pyrrol-2-one DL-tartrate]
- IC50 [1]: 0.413 µM

Structure (SMILES): CCC[C@H]1C(=O)N(S(C)(=O)=O)[C@H]2CCN(C(=O)CNC(C)=O)[C@H]12 (relative stereo) [Example 114, rel-N-[2-(4-Methanesulfonyl-5-oxo-6R-propyl-hexahydro-(3aS,6aR)-pyrrolo[3,2-b]pyrrol-1-yl)-2-oxo-ethyl]-acetamide]
- IC50 [1]: 0.042 µM

Structure (SMILES): CCC[C@H]1C(=O)N(S(C)(=O)=O)[C@H]2CCN(S(=O)(=O)c3ccc(CN(C)C)cc3)[C@H]12 (relative stereo) [Example 196, rel-(3R,3aR,6aS)-4-(4-Dimethylaminomethyl-benzenesulfonyl)-1-methanesulfonyl-3-propyl-hexahydro-pyrrolo[3,2-b]pyrrol-2-one hydrochloride]
- IC50 [1]: 0.034 µM
